Data published in patent US20090054403A1, “Treatment of Post-Traumatic Stress Disorder” (priority 2007, published 2009).

How the values were obtained:
locomotor activity = assay: Locomotor activity after acute dosing; format: in vivo, Sprague Dawley rats; conditions: 4 h; nepicastat 3-100 mg/kg, SKF-102698 100 mg/kg, clonidine 40 μg/kg
Description: Changes in these behaviors may therefore reflect activity of these compounds in the central nervous system. […] Rats were housed under a normal light/dark cycle with lights on between 0900 Hrs. and 2100 Hrs. Animals were housed in pairs in standard metal wire cages, and food and water were allowed ad libitum. The locomotor activity boxes consisted of a Plexiglas® box measuring 18″×18″ by 12″ high. Surrounding the Plexiglas® boxes were Omnitech Digiscan Monitors (model # RXXCM 16) which consisted of a one inch ban of photobeams and photosensors numbering 32 per box. The number of photobeam breaks were analyzed by an Omnitech Digiscan Analyzer (model # DCM-8). […] Prior to drug administration, each of seventy-two rats was placed in the startle apparatus, and after a 5 minute adaption period they were presented with an acoustic noise burst every 20 seconds for 15 minutes (45 startles total). The average startle was calculated for each rat by taking the mean of startle number 11 through 45 (the first ten startles will be disregarded). Sixty-four of these rats were then placed in one of eight treatment groups such that each group had similar mean startle values. The eight treatment groups were as follows: […] Each day after this testing procedure, eight rats (one rat from each of the eight treatment groups) was injected with their assigned drug treatment and immediately placed individually in a motor activity box. The rats motor activity was monitored for four hours. Next, the rats were placed in a transfer cage for fifteen minutes. At the beginning of this fifteen minutes the rat that has been assigned the clonidine treatment will receive another injection of 40 μg/kg. […] To evaluate motor activity, horizontal activity (number of photobeams broken), number of movements, and rest time were measured. Each parameter was analyzed separately. At each time interval (or called sample), a two-way analysis of variance (ANOVA) was performed using the ranked data (nonparametric technique) to test for the treatment effect blocked by day.

[1] = test system: acoustic startle reactivity; assay: Acoustic startle reactivity after acute dosing; format: in vivo, Sprague Dawley rats; conditions: nepicastat 3-100 mg/kg, SKF-102698 100 mg/kg, clonidine 40 μg/kg
Protocol: A piezoelectric accelerometer transforms the subject's movement into an arbitrary voltage on a scale of 0 to 4095. Prior to drug administration, each of seventy-two rats was placed in the startle apparatus, and after a 5 minute adaption period they were presented with an acoustic noise burst every 20 seconds for 15 minutes (45 startles total). The average startle was calculated for each rat by taking the mean of startle number 11 through 45 (the first ten startles will be disregarded). Sixty-four of these rats were then placed in one of eight treatment groups such that each group had similar mean startle values. The eight treatment groups were as follows: […] Each day after this testing procedure, eight rats (one rat from each of the eight treatment groups) was injected with their assigned drug treatment and immediately placed individually in a motor activity box. The rats motor activity was monitored for four hours. Next, the rats were placed in a transfer cage for fifteen minutes. […] To evaluate startle reactivity, for the 200 milliseconds immediately succeeding each startle the average force exerted by each startled rat over the entire 200 milliseconds, and the maximum force, were measured. […] The startle responses were analyzed using analysis of covariance. […] Therefore, the startle responses were analyzed by time. […]

pre-pulse inhibition = assay: Pre-pulse inhibition of acoustic startle on day ten of chronic dosing
Protocol: (§1) The effects of chronic dosing of nepicastat were examined. Between three and thirteen days prior to the first dosing day the rats were placed inside the startle apparatus and after a five minute acclimation period they were presented with a 118 dB noise burst on average once a minute (a variable inter-trial interval ranging between 30 and 90 seconds will be used) for 20 minutes. The startle responses were measured and a mean for the last twenty startle response was calculated for each rat.
(§2) Acoustic startle reactivity (a series of muscle contractions elicited by an intense burst of noise with a rapid onset), and pre-pulse inhibition (sensorimotor gating measured by analyzing any decrease in startle reactivity which occurs when a startling stimulus is immediately preceded by a non startling stimulus) were both measured in eight SR-Lab (San Diego Instruments, San Diego, Calif.) test stations. The rats were placed individually in a Plexiglas cylinder (10 cm diameter) which was housed in a ventilated sound-attenuating enclosure. Acoustic noise bursts (a broad band noise with a rise time and fall time of 1 msec) were presented via a speaker mounted 30 cm above the animal. Also, these speakers produced a 68 dB level of background noise throughout all test sessions. […] A decibel meter was used to calibrate the speakers in each of the eight test station to ±1% of the mean. Additionally, a SR-Lab calibrating instrument was used to calibrate each of the eight startle detection apparatuses to ±2% of the mean. Startle reactivity and pre-pulse inhibition tests were run concurrently immediately alter the motor activity test (about 4 hours and 40 minutes after the morning daily injection of nepicastat, and SKF-102698, and 10 minutes after a supplemental administration of clonidine and d-amphetamine on dosing day ten).

[2] = test system: acoustic startle reactivity; assay: Acoustic startle reactivity on day ten of chronic dosing; conditions: rat, in vivo, po
Protocol: as §1, §2

body core temperature = assay: Body core temperature during 10 day chronic dosing; conditions: b.i.d. oral: nepicastat 5, 15, 50 mg/kg; SKF-102698 50 mg/kg; clonidine 20 ug/kg; d-amphetamine 2 mg/kg; days 1, 5, 10
Protocol: as §1
Rat body core temperatures were obtained by inserting the rectal probe 2 cm into the colon of each rat. Each rat's body core temperature was measured three times and the average of the three reading was calculated. Body core temperature readings were obtained immediately prior to the ten day chronic dosing schedule (to obtain a baseline), and three and half hour after the morning daily dose of nepicastat, and SKF-102698, and 15 minutes prior to the daily administration of clonidine and d-amphetamine, on dosing days one, five and ten. […] Both clonidine (an alpha2 agonist), and d-amphetamine (a dopamine releaser) were used as the positive controls for this assay.
An overall one-way ANOVA with a main effect for treatment was performed at each time on the change from baseline for each animal. Subsequent t-tests were performed for each comparison of interest.

[3] = test system: spontaneous motor activity; assay: Spontaneous motor activity on day ten of chronic dosing; conditions: day ten of b.i.d. oral dosing, 1 hour
Protocol: as §1
The animals were tested in an enclosed room with a white noise generator running. Motor activity tests were conducted immediately after the body core temperature reading taken on dosing day ten (about 3 hours and 35 minutes after the morning daily dose of nepicastat, and SKF-102698, and 20 minutes prior to the daily administration of clonidine and d-amphetamine on dosing day ten). Motor activity tests were run for one hour. A diagnostic program was run on each of the motor activity chambers prior to each test session to assure that the photo beams and light sensors were operating properly. […] D-amphetamine was used as the positive control for this assay.
Each rats spontaneous locomotion was obtained by calculating the total number of photobeams that the subject broke during the testing session.
Spontaneous motor activity was measured for each animal every 15 min for 1 hour. Each time block (every 15 min) was analyzed separately. Kruskal-Wallis test (nonparametric technique) was performed to test for the difference between treatment groups. If the overall significant difference […], Bonferroni's adjustment for multiple comparisons is then made.

[4] = Change of body weight during 10 day chronic dosing; conditions: 10 days b.i.d. oral dosing
Protocol: as §1
The change from pre-dose in body weights was calculated for each animal for the analysis. A repeated measures two-way ANOVA was used to test for the overall effects of treatment, time and treatment by time interaction. One-way ANOVAS were then performed to test the treatment effect at each day.

| SMILES | horizontal activity vs vehicle (locomotor activity) | number of movements vs vehicle (locomotor activity) | rest time vs vehicle (locomotor activity) | maximum and average startle response vs vehicle [1] | percent prepulse inhibition vs vehicle (pre-pulse inhibition; rat, in vivo, po) | acoustic startle reactivity vs vehicle [2] | body core temperature (body core temperature) | spontaneous motor (locomotor) activity vs vehicle [3] | percent prepulse inhibition vs vehicle (pre-pulse inhibition; day ten of b.i.d. oral dosing) | change in body weight from pre-dose vs vehicle [4] |
| --- | --- | --- | --- | --- | --- | --- | --- | --- | --- | --- |
| Clc1cccc(Cl)c1N=C1NCCN1 [clonidine] | significantly more horizontal activities at 2 and 2.5 hours | significantly more movements at 2 hours | significantly less rest time at 2 hours | statistically significantly lower | just significantly higher percent prepulse inhibition | significantly reduced |  |  |  |  |
| C[C@H](N)Cc1ccccc1 [d-amphetamine] |  |  |  |  |  |  | significantly increasing body core temperature on day one | significantly higher locomotor activity | Neither d-amphetamine nor SKF 102698 was significantly different | significantly smaller change in body weight |
